{
  "source": "paper PMC6706801",
  "about": "“Palladium-Catalyzed Hydroxycarbonylation of (Hetero)aryl Halides for DNA-Encoded Chemical Library Synthesis” (Bioconjugate Chemistry, 2019)",
  "molecular_target": "T1, soluble epoxide hydrolase (sEH, EPHX2) (Homo sapiens, UniProt P34913)",
  "T1 sequence (P34913 1-555)": "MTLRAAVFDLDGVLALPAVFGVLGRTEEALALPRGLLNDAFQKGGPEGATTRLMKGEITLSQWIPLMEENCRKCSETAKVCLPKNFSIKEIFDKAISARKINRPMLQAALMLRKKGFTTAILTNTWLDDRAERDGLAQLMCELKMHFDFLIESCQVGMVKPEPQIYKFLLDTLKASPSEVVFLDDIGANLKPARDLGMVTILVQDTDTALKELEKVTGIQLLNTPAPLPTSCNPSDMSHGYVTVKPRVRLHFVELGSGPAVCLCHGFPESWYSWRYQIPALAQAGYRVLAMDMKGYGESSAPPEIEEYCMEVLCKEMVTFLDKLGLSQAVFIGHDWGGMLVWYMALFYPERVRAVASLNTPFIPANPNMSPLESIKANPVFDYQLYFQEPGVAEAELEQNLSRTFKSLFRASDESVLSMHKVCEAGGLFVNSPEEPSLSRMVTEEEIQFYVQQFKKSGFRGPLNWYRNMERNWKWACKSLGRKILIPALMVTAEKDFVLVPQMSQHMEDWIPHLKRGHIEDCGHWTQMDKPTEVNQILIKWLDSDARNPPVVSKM",
  "test": "fluorescent kinetic enzyme assay (off-DNA hit resynthesised after DECL selection)",
  "format": "biochemical",
  "data": [
    {"smiles": "Cc1cccc(CCNC(=O)c2ccc(F)c(CN(C)Cc3cc(C(=O)NCCc4cccc(C)c4)ccc3F)c2)c1", "note": "[compound 5, 5]", "values": [
      {"measurement": "Ki", "value": "9 ± 2", "unit": "nM"}
    ]}
  ]
}
